One assay concerns B. subtilis UC 564. The experiment in a line: standard disc plate assay, zones of inhibition. The format is cell-based. The settings on record: Bacillus subtilis, 12.5 mm paper discs; for zone of inhibition at 100 µg/mL: UC564, read-out: Zones of Inhibition, 0.1 mg/ml; for zone of inhibition at 1000 µg/mL: UC564, read-out: Zones of Inhibition, 1 mg/ml. A digest of the protocol:
(§1)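 In vitro testing: standard disc plate assay. Discs of 12.5 mm paper carry the compound; inhibition zones are measured.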

The subject of a further assay is K. pneumoniae UC 57. The experiment in a line: standard disc plate assay, zones of inhibition. The format is cell-based. The following applies: Klebsiella pneumoniae, 12.5 mm paper discs; for zone of inhibition at 100 µg/mL: UC57, read-out: Zones of Inhibition, 0.1 mg/ml; for zone of inhibition at 1000 µg/mL: UC57, read-out: Zones of Inhibition, 1 mg/ml. A digest of the protocol: as §1

We go through one molecule from patent US4169197A, “6-Deoxyneamines aminoglycoside compounds” (The Upjohn Company, priority 1978, dated 1979).

Where two headings read alike, the source gives them in different places.

For the molecule `NC[C@H]1O[C@H](O[C@H]2[C@H](O)[C@@H](O)[C@H](N)C[C@@H]2N)[C@H](N)[C@@H](O)[C@@H]1O` [Neamine], the zone of inhibition at 100 µg/mL in the assay with B. subtilis UC 564 (Table I) was determined as 30 mm; in the assay with B. subtilis UC 564 (Table II) it was 28 mm; in the assay with K. pneumoniae UC 57 (Table I), 27 mm; with K. pneumoniae UC 57 (Table II) it was 26 mm. In addition, the zone of inhibition at 1000 µg/mL with B. subtilis UC 564 (Table I) was determined as 39 mm; in the assay on B. subtilis UC 564 (Table II), 37 mm; in the assay on K. pneumoniae UC 57 (Table I) it was 34 mm; in the assay on K. pneumoniae UC 57 (Table II), 32 mm.
